According to patent publication US10052320B2, “Substituted quinoxalines as FGFR kinase inhibitors” (ASTEX THERAPEUTICS LIMITED, priority 2011, dated 2018):

Legend:
FGFR2 (h) = FGFR2 (h) (Homo sapiens, UniProt P21802); test: FGFR2 (enzymatic assay), TR-FRET; format: biochemical; conditions: read-out: FGFR 2 pIC50 (converted)
Protocol: In a final reaction volume of 30 μL, FGFR2 (h) (150 ng/ml) was incubated with 50 mM HEPES pH 7.5, 6 mM MnCl2, 1 mM DTT, 0.1 mM Na3VO4, 0.01% Triton-X-100, 500 nM Btn-Flt3 and 0.4 μM ATP in the presence of compound (1% DMSO final). […] Time-Resolved Fluorescence Resonance Energy Transfer (TR-FRET) signal (ex340 nm. Em 620 nm, em 655 nm) was measured afterwards and results are expressed in (Relative Fluorescence Units).

[1] = target: Ba/F3-FGFR3-transfected cells (Homo sapiens, UniProt P22607); test: Ba/F3-FGFR3 (minus IL3) cellular proliferation assay, Alamar Blue; format: cell-based; conditions: for BAF3-FGFR 3 (MIN IL3) 384 well pIC50: minus IL3, 384 well; for BAF3-FGFR 3 (MIN IL3) 96 well pIC50: minus IL3, 96 well
Summary of the method: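 FGFR3-Ba/F3 cells, 20000/well (384-well) or 10000/well (96-well), phenol red free RPMI + 10% FBS; cpd in DMSO; 24 h, 37 °C/5% CO2; Alamar Blue 4 h; RFU ex540/em590.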

[2] = target: T1, Ba/F3-Flt3-transfected cells (Homo sapiens, UniProt P36888, cells depend on it, form not given); test: Ba/F3-Flt3 (minus IL3) cellular proliferation assay, Alamar Blue; format: cell-based; conditions: minus IL3
T1 sequence (P36888 1-993): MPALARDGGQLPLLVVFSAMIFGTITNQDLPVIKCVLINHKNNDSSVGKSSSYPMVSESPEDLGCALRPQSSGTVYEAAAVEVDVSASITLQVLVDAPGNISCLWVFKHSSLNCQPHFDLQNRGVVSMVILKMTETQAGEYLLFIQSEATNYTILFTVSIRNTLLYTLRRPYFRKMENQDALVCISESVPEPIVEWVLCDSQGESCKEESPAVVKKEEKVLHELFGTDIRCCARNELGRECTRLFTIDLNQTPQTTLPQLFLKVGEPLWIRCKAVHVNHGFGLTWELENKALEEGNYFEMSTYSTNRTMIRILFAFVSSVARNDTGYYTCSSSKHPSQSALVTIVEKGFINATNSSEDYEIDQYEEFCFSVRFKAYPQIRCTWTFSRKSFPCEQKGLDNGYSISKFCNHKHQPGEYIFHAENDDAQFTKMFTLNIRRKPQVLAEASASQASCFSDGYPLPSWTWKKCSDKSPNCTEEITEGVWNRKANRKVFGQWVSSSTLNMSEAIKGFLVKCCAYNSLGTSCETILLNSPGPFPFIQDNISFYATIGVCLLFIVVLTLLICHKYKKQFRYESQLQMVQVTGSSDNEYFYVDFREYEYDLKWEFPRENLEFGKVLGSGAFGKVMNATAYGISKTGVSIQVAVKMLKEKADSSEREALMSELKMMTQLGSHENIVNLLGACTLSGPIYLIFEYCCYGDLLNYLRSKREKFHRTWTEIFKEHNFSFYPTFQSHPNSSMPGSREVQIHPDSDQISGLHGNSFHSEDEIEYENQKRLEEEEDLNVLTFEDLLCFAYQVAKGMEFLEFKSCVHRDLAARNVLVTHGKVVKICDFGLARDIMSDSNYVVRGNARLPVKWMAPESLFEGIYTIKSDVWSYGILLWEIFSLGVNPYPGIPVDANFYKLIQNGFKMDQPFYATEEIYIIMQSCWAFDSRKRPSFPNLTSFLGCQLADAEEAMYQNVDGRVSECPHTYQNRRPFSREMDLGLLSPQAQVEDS

[3] = system: Ba/F3-Flt3-transfected cells in the presence of 10 ng/ml murine IL3; test: Ba/F3-Flt3 (plus IL3) cellular proliferation counterscreen, Alamar Blue; format: cell-based; conditions: Mus musculus; plus 10 ng/ml murine IL3; read-out: BAF3-FLT3 (PLUS IL3) 384 well pIC50 (converted)

Chain of FGFR2 (h) (P21802 22-821): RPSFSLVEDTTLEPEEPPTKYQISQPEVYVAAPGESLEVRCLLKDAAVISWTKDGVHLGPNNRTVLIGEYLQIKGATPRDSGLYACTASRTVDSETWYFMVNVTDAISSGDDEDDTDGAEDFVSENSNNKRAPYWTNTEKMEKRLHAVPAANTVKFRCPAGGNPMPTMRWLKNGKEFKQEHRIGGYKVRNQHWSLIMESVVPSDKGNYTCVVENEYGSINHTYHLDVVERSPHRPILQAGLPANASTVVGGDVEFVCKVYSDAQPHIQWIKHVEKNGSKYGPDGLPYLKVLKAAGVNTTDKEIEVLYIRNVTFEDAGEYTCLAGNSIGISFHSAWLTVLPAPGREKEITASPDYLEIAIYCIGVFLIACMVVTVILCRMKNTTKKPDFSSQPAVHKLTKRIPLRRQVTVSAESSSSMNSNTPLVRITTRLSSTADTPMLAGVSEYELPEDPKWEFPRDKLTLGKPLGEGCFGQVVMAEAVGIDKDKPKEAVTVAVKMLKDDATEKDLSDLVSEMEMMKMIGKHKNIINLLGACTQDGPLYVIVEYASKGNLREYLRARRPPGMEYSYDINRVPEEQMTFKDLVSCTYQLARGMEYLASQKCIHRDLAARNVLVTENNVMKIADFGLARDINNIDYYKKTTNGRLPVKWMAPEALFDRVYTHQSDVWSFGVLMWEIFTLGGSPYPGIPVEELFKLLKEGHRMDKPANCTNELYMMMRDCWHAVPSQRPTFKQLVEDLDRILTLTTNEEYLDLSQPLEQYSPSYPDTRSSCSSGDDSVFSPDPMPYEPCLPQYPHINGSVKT
Chain of Ba/F3-FGFR3-transfected cells (P22607 whole entry, change not shown): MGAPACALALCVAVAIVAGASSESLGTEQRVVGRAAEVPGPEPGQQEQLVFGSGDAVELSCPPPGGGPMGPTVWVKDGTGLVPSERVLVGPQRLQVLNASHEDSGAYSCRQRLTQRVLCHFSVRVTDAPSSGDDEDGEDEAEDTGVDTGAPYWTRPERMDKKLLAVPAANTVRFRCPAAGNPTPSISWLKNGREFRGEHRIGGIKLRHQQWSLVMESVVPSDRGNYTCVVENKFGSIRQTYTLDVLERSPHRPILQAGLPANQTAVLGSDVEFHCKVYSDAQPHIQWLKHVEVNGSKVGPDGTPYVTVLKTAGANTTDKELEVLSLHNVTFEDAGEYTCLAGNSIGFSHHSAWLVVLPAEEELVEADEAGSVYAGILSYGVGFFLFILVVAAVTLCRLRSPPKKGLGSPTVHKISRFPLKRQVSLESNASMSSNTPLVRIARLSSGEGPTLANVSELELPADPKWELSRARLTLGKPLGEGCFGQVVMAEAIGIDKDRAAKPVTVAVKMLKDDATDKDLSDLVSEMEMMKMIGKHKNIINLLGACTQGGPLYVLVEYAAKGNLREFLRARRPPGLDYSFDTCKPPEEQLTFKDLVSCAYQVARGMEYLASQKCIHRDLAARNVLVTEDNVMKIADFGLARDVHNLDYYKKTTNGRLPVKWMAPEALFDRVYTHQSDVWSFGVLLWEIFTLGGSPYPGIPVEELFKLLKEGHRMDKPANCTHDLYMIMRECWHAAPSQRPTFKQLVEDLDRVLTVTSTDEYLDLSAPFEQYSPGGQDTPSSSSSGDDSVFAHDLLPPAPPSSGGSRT

## COCCCN(c1cc(OC)cc(OC)c1)c1ccc2ncc(-c3ccn(C)c3)nc2c1 [Compound 3]
FGFR2 (h)
  IC50: 19.5 nM
[1]
  BAF3-FGFR 3 (MIN IL3) 384 well pIC50: 6.62
[2]
  BAF3-FLT3 (MIN IL3) 384 well pIC50: 5.07
[3]
  IC50: > 10000 nM

## COCCN(c1cc(OC)cc(OC)c1)c1ccc2ncc(-c3ccn(C)c3)nc2c1 [Compound 6]
FGFR2 (h)
  IC50: 12 nM
[1]
  BAF3-FGFR 3 (MIN IL3) 384 well pIC50: ~6.27
[2]
  BAF3-FLT3 (MIN IL3) 384 well pIC50: <5
[3]
  IC50: > 10000 nM
other
  melting point: 135 °C

## COc1cc(OC)cc(N(CCNC(C)C)c2ccc3ncc(-c4ccn(C)c4)nc3c2)c1 [Compound 8]
FGFR2 (h)
  IC50: 2.63 nM
[1]
  BAF3-FGFR 3 (MIN IL3) 384 well pIC50: ~7.69
[2]
  BAF3-FLT3 (MIN IL3) 384 well pIC50: 5.2
[3]
  IC50: > 10000 nM

## COc1cc(OC)cc(N(CCO)c2ccc3ncc(-c4cccnc4)nc3c2)c1 [Compound 9]
FGFR2 (h)
  IC50: 17 nM
[1]
  BAF3-FGFR 3 (MIN IL3) 384 well pIC50: 6.59
[2]
  BAF3-FLT3 (MIN IL3) 384 well pIC50: <5
[3]
  IC50: > 10000 nM
other
  melting point: 151 °C

## COc1cc(OC)cc(N(CCNC(C)C)c2ccc3ncc(-c4cccnc4)nc3c2)c1 [Compound 10]
FGFR2 (h)
  IC50: 5.89 nM
[1]
  BAF3-FGFR 3 (MIN IL3) 384 well pIC50: 7.53
[2]
  BAF3-FLT3 (MIN IL3) 384 well pIC50: ~5.01
[3]
  IC50: 9330 nM

## COc1cc(OC)cc(N(CC2CC2)c2ccc3ncc(-n4ccnc4C)nc3c2)c1 [Compound 32]
FGFR2 (h)
  IC50: 575 nM
[1]
  BAF3-FGFR 3 (MIN IL3) 96 well pIC50: <5
  BAF3-FGFR 3 (MIN IL3) 384 well pIC50: <5
[2]
  BAF3-FLT3 (MIN IL3) 96 well pIC50: <5
  BAF3-FLT3 (MIN IL3) 384 well pIC50: <5
[3]
  IC50: > 10000 nM

## COc1cc(OC)cc(N(Cc2cccc(CN)n2)c2ccc3ncc(-c4ccc(N)nc4)nc3c2)c1 [Compound 51]
FGFR2 (h)
  IC50: 8.91 nM
[1]
  BAF3-FGFR 3 (MIN IL3) 384 well pIC50: ~5.77
[2]
  BAF3-FLT3 (MIN IL3) 384 well pIC50: 5.27
[3]
  IC50: ~7080 nM

## COc1cc(OC)cc(N(CC2CC2)c2ccc3ncc(-c4ccn[nH]4)nc3c2)c1 [Compound 58]
FGFR2 (h)
  IC50: 537 nM
[1]
  BAF3-FGFR 3 (MIN IL3) 96 well pIC50: 5.56
[2]
  BAF3-FLT3 (MIN IL3) 96 well pIC50: <5
  BAF3-FLT3 (MIN IL3) 384 well pIC50: <5
[3]
  IC50: 8320 nM

## CCOC(=O)c1ncn(-c2cnc3ccc(N(CC4CC4)c4cc(OC)cc(OC)c4)cc3n2)c1C [Compound 65]
FGFR2 (h)
  IC50: > 1000 nM
[1]
  BAF3-FGFR 3 (MIN IL3) 96 well pIC50: 5.08
  BAF3-FGFR 3 (MIN IL3) 384 well pIC50: <5
[2]
  BAF3-FLT3 (MIN IL3) 96 well pIC50: <5
  BAF3-FLT3 (MIN IL3) 384 well pIC50: <5
[3]
  IC50: > 10000 nM

## COc1cc(OC)cc(N(CCCO)c2ccc3ncc(-c4ccnc(N)c4)nc3c2)c1 [Compound 66]
FGFR2 (h)
  IC50: 4.07 nM
[1]
  BAF3-FGFR 3 (MIN IL3) 384 well pIC50: ~7.05
[3]
  IC50: > 10000 nM
other
  melting point: 137 °C

## COc1cc(OC)cc(N(CC2CC2)c2ccc3ncc(-c4ccn(C)c4)nc3c2)c1 [Compound 73]
[2]
  BAF3-FLT3 (MIN IL3) 96 well pIC50: 5.31
  BAF3-FLT3 (MIN IL3) 384 well pIC50: 5.03
[3]
  IC50: > 10000 nM
other
  melting point: 110 °C

## COc1cc(OC)cc(N(CC(O)CO)c2ccc3ncc(-c4ccc(N)nc4)nc3c2)c1 (stereo not shown) [Compound 74]
FGFR2 (h)
  IC50: 11.5 nM
[1]
  BAF3-FGFR 3 (MIN IL3) 384 well pIC50: 6.69
[2]
  BAF3-FLT3 (MIN IL3) 384 well pIC50: <5
[3]
  IC50: > 10000 nM

## COc1cc(OC)cc(N(CCCO)c2ccc3ncc(-c4cccnc4)nc3c2)c1 [Compound 112]
FGFR2 (h)
  IC50: 20.9 nM
[1]
  BAF3-FGFR 3 (MIN IL3) 384 well pIC50: ~6.39
[3]
  IC50: > 10000 nM
other
  melting point: 150 °C

## COc1cc(OC)cc(N(CCCO)c2ccc3ncc(-c4ccc(F)nc4)nc3c2)c1 [Compound 117]
FGFR2 (h)
  IC50: 22.4 nM
[1]
  BAF3-FGFR 3 (MIN IL3) 384 well pIC50: 6.25
[3]
  IC50: > 10000 nM

## CNC(=O)c1cc(-c2cnc3ccc(N(CCCNCC(F)(F)F)c4cc(OC)cc(OC)c4)cc3n2)ccn1 [Compound 122]
FGFR2 (h)
  IC50: 46.8 nM
[1]
  BAF3-FGFR 3 (MIN IL3) 384 well pIC50: 5.49
[2]
  BAF3-FLT3 (MIN IL3) 384 well pIC50: <5
[3]
  IC50: > 10000 nM

## COc1cc(OC)cc(N(CCCNCC(F)(F)F)c2ccc3ncc(-c4ccc(N(C)C(=O)OC(C)(C)C)nc4)nc3c2)c1 [Compound 127]
FGFR2 (h)
  IC50: 363 nM
[1]
  BAF3-FGFR 3 (MIN IL3) 384 well pIC50: <5
[2]
  BAF3-FLT3 (MIN IL3) 384 well pIC50: <5
[3]
  IC50: > 10000 nM
